Results from patent publication US20250145665A1, “MACROCYCLIC PEPTIDES USEFUL AS MODULATORS OF TNF ALPHA” (Bristol-Myers Squibb Company, priority 2023, published 2025).
Starred links: 1 amine or outer side, 2 acyl side, 3 side chain; linkers in the order of their positions; H or OH if unused. Positions of bridges follow the written chain, without caps; N, C: chain ends. Non-standard residues stand in square brackets, D forms with d. Residues, ends and D or L forms follow the SMILES beside them. Bip(4'-COOH) = N[C@@H](Cc1ccc(-c2ccc(C(=O)O)cc2)cc1)C(=O)O; Bip(4'-NHAc) = CC(=O)Nc1ccc(-c2ccc(C[C@H](N)C(=O)O)cc2)cc1; Phe(4-(4-pyridyl)) = N[C@@H](Cc1ccc(-c2ccncc2)cc1)C(=O)O; Phe(4-(3-Py)) = N[C@@H](Cc1ccc(-c2cccnc2)cc1)C(=O)O; Pro(trans-4-Ph) = O=C(O)[C@@H]1C[C@@H](c2ccccc2)CN1; Pro(cis-4-Ph) = O=C(O)[C@@H]1C[C@H](c2ccccc2)CN1; Ala(morpholin-4-yl) = N[C@@H](CN1CCOCC1)C(=O)O; Asp(3,3-Me2) = CC(C)(C(=O)O)[C@H](N)C(=O)O; Bip = N[C@@H](Cc1ccc(-c2ccccc2)cc1)C(=O)O; X82 = C[C@@]1(C(=O)[*:2])CCN1[*:1]; 4Pal = N[C@@H](Cc1ccncc1)C(=O)O; d(αMeP) = C[C@]1(C(=O)O)CCCN1; Sar = CNCC(=O)O

Target: TNFα (Homo sapiens, UniProt P01375)
Test: TNF-Induced HEK-Blue Assay
Assay type: cell-based
Details: HEK-Blue-CD40L cells, NF-kB-driven secreted alkaline phosphatase reporter; TNFα 0.5 ng/ml; 18 h; read-out: TNF induced HEK-Blue assay IC50 value

Sequence of TNFα (P01375 77-233 limits assumed): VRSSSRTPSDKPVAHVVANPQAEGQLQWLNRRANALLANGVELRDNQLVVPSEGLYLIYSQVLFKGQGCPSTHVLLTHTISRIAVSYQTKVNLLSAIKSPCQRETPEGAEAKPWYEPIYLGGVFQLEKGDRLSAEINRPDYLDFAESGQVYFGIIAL

Row | SMILES | IC50 [µM]
1 | CC(C)[C@@H]1NC(=O)[C@H](CCCNC(=N)N)NC(=O)[C@H](C(C)C)NC(=O)[C@@H]2CCCN2C(=O)[C@H](C(C)C)NC(=O)[C@H](CCCNC(=N)N)NC(=O)[C@H](CC(=O)O)NC(=O)[C@@H]2CCCN2C(=O)CN(C)C(=O)[C@H](Cc2ccc(-c3ccccc3)cc2)NC(=O)[C@H](Cc2ccncc2)NC(=O)[C@H](CN2CCOCC2)NC(=O)CSC[C@@H](C(=O)NCC(N)=O)NC1=O [Example 86] ({CH2CO}-[Ala(morpholin-4-yl)][4Pal][Bip][Sar]PDRVPVRVCG-NH2; thioether N-13) | 0.05 to 0.2
2 | CC(C)[C@@H]1NC(=O)[C@H](CCCNC(=N)N)NC(=O)[C@H](C(C)C)NC(=O)[C@@H]2CCCN2C(=O)[C@H](C(C)C)NC(=O)[C@H](CCCNC(=N)N)NC(=O)[C@H](CC(=O)O)NC(=O)[C@@H]2CCCN2C(=O)CN(C)C(=O)[C@H](Cc2ccc(-c3ccccc3)cc2)NC(=O)[C@H](Cc2ccc(-c3ccncc3)cc2)NC(=O)[C@H](CN2CCOCC2)NC(=O)CSC[C@@H](C(=O)NCC(N)=O)NC1=O [Example 87] ({CH2CO}-[Ala(morpholin-4-yl)][Phe(4-(4-pyridyl))][Bip][Sar]PDRVPVRVCG-NH2; thioether N-13) | 0.05 to 0.2
3 | CC(C)[C@@H]1NC(=O)[C@H](CCCNC(=N)N)NC(=O)[C@H](C(C)C)NC(=O)[C@@H]2CCCN2C(=O)[C@H](C(C)C)NC(=O)[C@H](CCCNC(=N)N)NC(=O)[C@H](CC(=O)O)NC(=O)[C@@H]2CCCN2C(=O)CN(C)C(=O)[C@H](Cc2ccc(-c3ccccc3)cc2)NC(=O)[C@H](Cc2ccc(-c3cccnc3)cc2)NC(=O)[C@H](CN2CCOCC2)NC(=O)CSC[C@@H](C(=O)NCC(N)=O)NC1=O [Example 88] ({CH2CO}-[Ala(morpholin-4-yl)][Phe(4-(3-Py))][Bip][Sar]PDRVPVRVCG-NH2; thioether N-13) | 0.2 to 2
4 | CC(=O)Nc1ccc(-c2ccc(C[C@@H]3NC(=O)[C@H](Cc4ccc(-c5ccccc5)cc4)NC(=O)[C@H](CN4CCOCC4)NC(=O)CSC[C@@H](C(=O)NCC(N)=O)NC(=O)[C@H](C(C)C)NC(=O)[C@H](CCCNC(=N)N)NC(=O)[C@H](C(C)C)NC(=O)[C@@H]4CCCN4C(=O)[C@H](C(C)C)NC(=O)[C@H](CCCNC(=N)N)NC(=O)[C@H](CC(=O)O)NC(=O)[C@@H]4CCCN4C(=O)CN(C)C3=O)cc2)cc1 [Example 89] ({CH2CO}-[Ala(morpholin-4-yl)][Bip][Bip(4'-NHAc)][Sar]PDRVPVRVCG-NH2; thioether N-13) | 0.05 to 0.2
5 | CC(C)[C@@H]1NC(=O)[C@H](CCCNC(=N)N)NC(=O)[C@H](C(C)C)NC(=O)[C@@H]2CCCN2C(=O)[C@H](C(C)C)NC(=O)[C@H](CCCNC(=N)N)NC(=O)[C@H](CC(=O)O)NC(=O)[C@@H]2CCCN2C(=O)CN(C)C(=O)[C@H](Cc2ccc(-c3ccc(C(=O)O)cc3)cc2)NC(=O)[C@H](Cc2ccc(-c3ccccc3)cc2)NC(=O)[C@H](CN2CCOCC2)NC(=O)CSC[C@@H](C(=O)NCC(N)=O)NC1=O [Example 90] ({CH2CO}-[Ala(morpholin-4-yl)][Bip][Bip(4'-COOH)][Sar]PDRVPVRVCG-NH2; thioether N-13) | 0.05 to 0.2
6 | CC(C)[C@@H]1NC(=O)[C@H](CCCNC(=N)N)NC(=O)[C@H](C(C)C)NC(=O)[C@@H]2CCCN2C(=O)[C@H](C(C)C)NC(=O)[C@H](CCCNC(=N)N)NC(=O)[C@H](CC(=O)O)NC(=O)[C@@H]2CCCN2C(=O)CN(C)C(=O)[C@H](Cc2ccc(-c3ccncc3)cc2)NC(=O)[C@H](Cc2ccc(-c3ccccc3)cc2)NC(=O)[C@H](CN2CCOCC2)NC(=O)CSC[C@@H](C(=O)NCC(N)=O)NC1=O [Example 91] ({CH2CO}-[Ala(morpholin-4-yl)][Bip][Phe(4-(4-pyridyl))][Sar]PDRVPVRVCG-NH2; thioether N-13) | 0.2 to 2
7 | CC(C)[C@@H]1NC(=O)[C@H](CCCNC(=N)N)NC(=O)[C@H](C(C)C)NC(=O)[C@@H]2CCCN2C(=O)[C@H](C(C)C)NC(=O)[C@H](CCCNC(=N)N)NC(=O)[C@H](CC(=O)O)NC(=O)[C@@H]2CCCN2C(=O)CN(C)C(=O)[C@H](Cc2ccc(-c3cccnc3)cc2)NC(=O)[C@H](Cc2ccc(-c3ccccc3)cc2)NC(=O)[C@H](CN2CCOCC2)NC(=O)CSC[C@@H](C(=O)NCC(N)=O)NC1=O [Example 92] ({CH2CO}-[Ala(morpholin-4-yl)][Bip][Phe(4-(3-Py))][Sar]PDRVPVRVCG-NH2; thioether N-13) | 0.2 to 2
8 | CC(C)C[C@@H]1NC(=O)[C@H](Cc2ccc(O)cc2)NC(=O)[C@H](C(C)C)NC(=O)[C@]2(C)CCN2C(=O)[C@H](C(C)C)NC(=O)[C@H](CCCNC(=N)N)NC(=O)[C@H](CC(=O)O)NC(=O)[C@H](Cc2ccc(O)cc2)NC(=O)CN(C)C(=O)[C@H](Cc2ccc(-c3ccccc3)cc2)NC(=O)[C@H](Cc2ccc(-c3ccccc3)cc2)NC(=O)[C@H](CN2CCOCC2)NC(=O)CSC[C@@H](C(=O)NCC(N)=O)NC1=O [Example 93] ({CH2CO}-[Ala(morpholin-4-yl)][Bip][Bip][Sar]YDRV[X82]VYLCG-NH2; thioether N-13) | 0.05 to 0.2
9 | CC(C)C[C@@H]1NC(=O)[C@H](Cc2ccc(O)cc2)NC(=O)[C@H](C(C)C)NC(=O)[C@@H]2CCCN2C(=O)[C@H](C(C)C)NC(=O)[C@H](CCCNC(=N)N)NC(=O)[C@H](CC(=O)O)NC(=O)[C@@H]2C[C@H](c3ccccc3)CN2C(=O)CN(C)C(=O)[C@H](Cc2ccc(-c3ccccc3)cc2)NC(=O)[C@H](Cc2ccc(-c3ccccc3)cc2)NC(=O)[C@H](CN2CCOCC2)NC(=O)CSC[C@@H](C(=O)NCC(N)=O)NC1=O [Example 94] ({CH2CO}-[Ala(morpholin-4-yl)][Bip][Bip][Sar][Pro(cis-4-Ph)]DRVPVYLCG-NH2; thioether N-13) | 0.05 to 0.2
10 | CC(C)C[C@@H]1NC(=O)[C@H](Cc2ccc(O)cc2)NC(=O)[C@H](C(C)C)NC(=O)[C@@H]2CCCN2C(=O)[C@H](C(C)C)NC(=O)[C@H](CCCNC(=N)N)NC(=O)[C@H](CC(=O)O)NC(=O)[C@@H]2C[C@@H](c3ccccc3)CN2C(=O)CN(C)C(=O)[C@H](Cc2ccc(-c3ccccc3)cc2)NC(=O)[C@H](Cc2ccc(-c3ccccc3)cc2)NC(=O)[C@H](CN2CCOCC2)NC(=O)CSC[C@@H](C(=O)NCC(N)=O)NC1=O [Example 95] ({CH2CO}-[Ala(morpholin-4-yl)][Bip][Bip][Sar][Pro(trans-4-Ph)]DRVPVYLCG-NH2; thioether N-13) | 0.2 to 2
11 | CC(C)C[C@@H]1NC(=O)[C@H](CCCNC(=N)N)NC(=O)[C@H](C(C)C)NC(=O)[C@@H]2CCCN2C(=O)[C@H](C(C)C)NC(=O)[C@H](CCCNC(=N)N)NC(=O)[C@H](CC(=O)O)NC(=O)[C@@H]2C[C@H](c3ccccc3)CN2C(=O)CN(C)C(=O)[C@H](Cc2ccc(-c3ccccc3)cc2)NC(=O)[C@H](Cc2ccc(-c3ccccc3)cc2)NC(=O)[C@H](CN2CCOCC2)NC(=O)CSC[C@@H](C(=O)NCC(N)=O)NC1=O [Example 96] ({CH2CO}-[Ala(morpholin-4-yl)][Bip][Bip][Sar][Pro(cis-4-Ph)]DRVPVRLCG-NH2; thioether N-13) | 0.05 to 0.2
12 | CC(C)C[C@@H]1NC(=O)[C@H](CCCNC(=N)N)NC(=O)[C@H](C(C)C)NC(=O)[C@@H]2CCCN2C(=O)[C@H](C(C)C)NC(=O)[C@H](CCCNC(=N)N)NC(=O)[C@H](CC(=O)O)NC(=O)[C@@H]2C[C@@H](c3ccccc3)CN2C(=O)CN(C)C(=O)[C@H](Cc2ccc(-c3ccccc3)cc2)NC(=O)[C@H](Cc2ccc(-c3ccccc3)cc2)NC(=O)[C@H](CN2CCOCC2)NC(=O)CSC[C@@H](C(=O)NCC(N)=O)NC1=O [Example 97] ({CH2CO}-[Ala(morpholin-4-yl)][Bip][Bip][Sar][Pro(trans-4-Ph)]DRVPVRLCG-NH2; thioether N-13) | 0.05 to 0.2
13 | CC(C)C[C@@H]1NC(=O)[C@H](Cc2ccc(O)cc2)NC(=O)[C@H](C(C)C)NC(=O)[C@@H]2CCCN2C(=O)[C@H](C(C)C)NC(=O)[C@@H](CCCNC(=N)N)NC(=O)[C@H](CC(=O)O)NC(=O)[C@@H]2C[C@H](c3ccccc3)CN2C(=O)CN(C)C(=O)[C@H](Cc2ccc(-c3ccccc3)cc2)NC(=O)[C@H](Cc2ccc(-c3ccccc3)cc2)NC(=O)[C@H](CN2CCOCC2)NC(=O)CSC[C@@H](C(=O)NCC(N)=O)NC1=O [Example 98] ({CH2CO}-[Ala(morpholin-4-yl)][Bip][Bip][Sar][Pro(cis-4-Ph)]D[dR]VPVYLCG-NH2; thioether N-13) | 0.05 to 0.2
14 | CC(C)C[C@@H]1NC(=O)[C@H](Cc2ccc(O)cc2)NC(=O)[C@H](C(C)C)NC(=O)[C@@H]2CCCN2C(=O)[C@H](C(C)C)NC(=O)[C@@H](CCCNC(=N)N)NC(=O)[C@H](CC(=O)O)NC(=O)[C@@H]2C[C@@H](c3ccccc3)CN2C(=O)CN(C)C(=O)[C@H](Cc2ccc(-c3ccccc3)cc2)NC(=O)[C@H](Cc2ccc(-c3ccccc3)cc2)NC(=O)[C@H](CN2CCOCC2)NC(=O)CSC[C@@H](C(=O)NCC(N)=O)NC1=O [Example 99] ({CH2CO}-[Ala(morpholin-4-yl)][Bip][Bip][Sar][Pro(trans-4-Ph)]D[dR]VPVYLCG-NH2; thioether N-13) | 0.2 to 2
15 | CC(C)C[C@@H]1NC(=O)[C@H](Cc2ccc(O)cc2)NC(=O)[C@H](C(C)C)NC(=O)[C@@H]2CCCN2C(=O)[C@H](C(C)C)NC(=O)[C@H](CCCNC(=N)N)NC(=O)[C@H](C(C)(C)C(=O)O)NC(=O)[C@H](Cc2ccc(O)cc2)NC(=O)CN(C)C(=O)[C@H](Cc2ccc(-c3ccccc3)cc2)NC(=O)[C@H](Cc2ccc(-c3ccccc3)cc2)NC(=O)[C@H](CN2CCOCC2)NC(=O)CSC[C@@H](C(=O)NCC(N)=O)NC1=O [Example 100] ({CH2CO}-[Ala(morpholin-4-yl)][Bip][Bip][Sar]Y[Asp(3,3-Me2)]RVPVYLCG-NH2; thioether N-13) | 0.2 to 2
16 | CC(C)C[C@@H]1NC(=O)[C@H](Cc2ccc(O)cc2)NC(=O)[C@H](C(C)C)NC(=O)[C@@H]2CCCN2C(=O)[C@H](C(C)C)NC(=O)[C@H](CCCNC(=N)N)NC(=O)[C@H](CC(=O)O)NC(=O)[C@@]2(C)CCCN2C(=O)CN(C)C(=O)[C@H](Cc2ccc(-c3ccccc3)cc2)NC(=O)[C@H](Cc2ccc(-c3ccccc3)cc2)NC(=O)[C@H](CN2CCOCC2)NC(=O)CSC[C@@H](C(=O)NCC(N)=O)NC1=O [Example 101] ({CH2CO}-[Ala(morpholin-4-yl)][Bip][Bip][Sar][d(αMeP)]DRVPVYLCG-NH2; thioether N-13) | 0.05 to 0.2
